{
  "source": "paper PMC8237267",
  "about": "(Journal of Medicinal Chemistry, 2021)",
  "key": {"[1]": {"system": "MV4-11", "test": "Cytotoxicity assay (Cell Titer-Blue, 72 h)", "format": "cell-based", "conditions": "Homo sapiens; MV4-11 (AML); read-out: In cellulo IC50 MV4-11"}, "[2]": {"system": "acetylated histone H3", "test": "Western blot in MV4-11 cells", "format": "cell-based", "conditions": "MV4-11, 6 h", "description": "(§1) Briefly, MV4-11 cells were incubated with inhibitors prior to cell lysis with radioimmunoprecipitation assay (RIPA) buffer (20 mM Tris pH 7.4, 150 mM NaCl, 0.5% deoxycholate, 1% Triton X-100, and 0.1% sodium dodecyl sulfate (SDS)). Total protein content was determined through a BCA assay (ThermoFisher), resolved via a 4–20% polyacrylamide SDS gel, and transferred to a nitrocellulose membrane (Bio-Rad). The membranes were blocked with a 5% solution (skimmed milk powder in PBS-T). This was followed by incubation at 4 °C (overnight) with the following antibodies: acetylated α-tubulin mouse monoclonal (MABT868, EMD Millipore), acetylated histone H3 (Ac-Lys18, 07–354, Sigma), PARP-1 (ab227244, Abcam), apoptosis Western blot cocktail (136812, Abcam), cleaved PARP-1 (ab32561, Abcam), and HSC70 (sc-7298, Santa Cruz). Following overnight incubation, horseradish peroxidase (HRP)-conjugated goat anti-mouse IgG secondary antibody (7076, Cell Signaling) or HRP-linked anti-rabbit IgG secondary antibody (7074, Cell Signaling) was applied to the membrane in a 1:5000 dilution. The bands were visualized using clarity Western ECL substrate luminal/enhancer solution and peroxide solution. Western blotting analysis was carried out using Image lab software (Bio-Rad).[47],[50],[70]"}, "[3]": {"system": "Mac1", "test": "Cytotoxicity assay (Cell Titer-Blue, 72 h)", "format": "cell-based", "conditions": "ALK- ALCL; one representative of three experiments; read-out: IC50 (heat map) Mac1", "description": "(§2) The PTCL cell lines, KHYG-1, NK-92, SNK6, DERL-2, Mac1, 1305 Myla, Hut78, SU-DHL-1 or T-ALL cell lines SUP-T11, DND-41, and MOLT4 were maintained in RPMI-1640 supplemented with 10% FBS, 0.06 g/L penicillin/0.1 g/L streptomycin (Pen/Strep, Gibco), and 2 mM L-glutamine (Gibco). Culture media of KHYG-1, NK-92, SNK6, and DERL-2 cells was additionally supplemented with 2.5 ng/mL recombinant human IL-2 (ImmunoTools GmbH, Germany). The authenticity of PTCL cell lines was confirmed by analysis of highly polymorphic short tandem repeat loci (STR) using the PowerPlex 16 HS System (Promega; performed by Microsynth AG, Switzerland).\n(§3) Cells were plated in 96-well flat-bottom sterile culture plates with low-evaporation lids (Costar #3997). The inhibitors and a vehicle control (0.5% DMSO) were added to the cells following 24 h. After 72 h, Cell Titer-Blue (Promega #G808A) was added to each well (20 μL), and the fluorescence was measured at 560/590 nm using a Cytation S63 spectrophotometer (BioTek) or a GloMax Discover Microplate Reader (Promega, Madison, WI, USA). GraphPad Prism 6.0 (GraphPad Software Inc.) was used to determine the IC50 values."}, "[4]": {"system": "Hut78", "test": "Cytotoxicity assay (Cell Titer-Blue, 72 h)", "format": "cell-based", "conditions": "Homo sapiens, CTCL, one representative of three experiments, read-out: IC50 (heat map) Hut78", "description": "as §2, §3"}, "[5]": {"system": "Myla", "test": "Cytotoxicity assay (Cell Titer-Blue, 72 h)", "format": "cell-based", "conditions": "CTCL; one representative of three experiments; read-out: IC50 (heat map) Myla"}, "[6]": {"system": "NHF (normal human fibroblasts)", "test": "Cytotoxicity assay (Cell Titer-Blue, 72 h)", "format": "cell-based", "conditions": "Fibroblast, read-out: Cellular IC50 NHF"}, "[7]": {"system": "pPF (primary pooled fibroblasts from 250 donors)", "test": "Cytotoxicity assay (Cell Titer-Blue, 72 h)", "format": "cell-based", "conditions": "Fibroblast, read-out: Cellular IC50 pPF"}, "[8]": {"system": "acetylation of α-tubulin", "test": "Immunofluorescence assay in HeLa cells", "format": "cell-based", "conditions": "6 h, increasing doses", "description": "HeLa cells were plated to subconfluency on a 96-well plate (clear bottom black from Fisher Scientific). As above, inhibitors were introduced following 24 h. The cells were washed with 1× PBS, fixed with 4% formaldehyde (Millipore Sigma), permeabilized with 1% Triton X-100 (Millipore Sigma), and blocked in 5% bovine serum albumin (BSA) (BioShop) for 1 h at room temperature. Following this treatment, the cells were incubated in a cocktail composed of acetylated α-tubulin mouse monoclonal (1:100 dilution, MD Millipore) and acetylated histone H3 (1:50 dilution, Ac-Lys18, Sigma) antibodies. Secondary antibodies anti-mouse Alexa Fluor 647 and anti-rabbit Alexa Fluor 488 were used for immunofluorescent detection. Cells were counterstained for nucleic acids using 4′,6-diamidino-2-phenylindole (DAPI) (ThermoFisher Scientific). The cells were imaged with a Cytation S63 spectrophotometer and the fluorescence intensity was determined using ImageJ (n = 3). Two-way ANOVA with Tukey’s multiple comparisons test were performed using GraphPad Prism 6.0 (GraphPad Software Inc.). A p-value ≤ 0.05 was considered significant."}, "[9]": {"system": "SUP-T11", "test": "Cytotoxicity assay (Cell Titer-Blue, 72 h)", "format": "cell-based", "conditions": "SUPT11; T-ALL/T-PLL like; one representative of three experiments; read-out: IC50 (heat map) SUP-T11"}, "[10]": {"system": "cleavage of PARP-1 and Caspase-3", "test": "Western blot of apoptosis markers in MV4-11 cells", "format": "cell-based", "conditions": "MV4-11, 6 h, 5 μM", "description": "as §1"}, "[11]": {"system": "MV4-11 cells", "test": "FACS apoptosis detection assay (Annexin V/PI)", "format": "cell-based", "conditions": "MV4-11, 18 h", "description": "MV4-11 cells were prepared, dosed, and washed with cold 1× PBS. The resulting cell pellets were resuspended in 1× Binding Buffer (1 × 10^6 cell/mL) from the FITC Annexin V Apoptosis Detection Kit I (BD Pharmingen). Subsequently, the dyes annexin V (5 μL) and propidium iodide (PI, 5 μL) were added to 2.5 × 10^5 cells (250 μL). The suspension was thoroughly mixed and incubated in the dark for 15 min. Following the addition of 250 μL of 1× binding buffer, the cells were analyzed by flow cytometry within 1 h using the Cytoflex S system (Beckman Coulter)."}, "[12]": {"test": "In vivo PK study in CD-1 male mice", "conditions": "mouse, plasma, CD-1 mice, IP, 20 mg/kg"}, "[13]": {"system": "DERL-2", "test": "Cytotoxicity assay (Cell Titer-Blue, 72 h)", "format": "cell-based", "conditions": "γδ T-NHL; one representative of three experiments; read-out: IC50 (heat map) DERL-2"}, "[14]": {"system": "HUVEC (primary human umbilical vein endothelial cells)", "test": "Cytotoxicity assay (Cell Titer-Blue, 72 h)", "format": "cell-based", "conditions": "read-out: Cellular IC50 HUVEC"}, "[15]": {"system": "DND-41", "test": "Cytotoxicity assay (Cell Titer-Blue, 72 h)", "format": "cell-based", "conditions": "DND41; T-ALL; one representative of three experiments; read-out: IC50 (heat map) DND-41"}, "[16]": {"system": "NK-92", "test": "Cytotoxicity assay (Cell Titer-Blue, 72 h)", "format": "cell-based", "conditions": "NK92; LGL; one representative of three experiments; read-out: IC50 (heat map) NK-92"}, "[17]": {"system": "SU-DHL-1", "test": "Cytotoxicity assay (Cell Titer-Blue, 72 h)", "format": "cell-based", "conditions": "Homo sapiens, ALK+ ALCL, one representative of three experiments, read-out: IC50 (heat map) SU-DHL-1"}, "[18]": {"system": "MRC-9", "test": "Cytotoxicity assay (Cell Titer-Blue, 72 h)", "format": "cell-based", "conditions": "MRC9; MRC-9 (healthy fibroblasts); read-out: In cellulo IC50 MRC-9"}, "[19]": {"system": "MOLT4", "test": "Cytotoxicity assay (Cell Titer-Blue, 72 h)", "format": "cell-based", "conditions": "Homo sapiens, MOLT-4; T-ALL; one representative of three experiments; read-out: IC50 (heat map) MOLT4"}, "[20]": {"system": "SNK6", "test": "Cytotoxicity assay (Cell Titer-Blue, 72 h)", "format": "cell-based", "conditions": "T/NK cell lymphoma, one representative of three experiments, read-out: IC50 (heat map) SNK6"}, "[21]": {"system": "MOLM-13", "test": "Cytotoxicity assay (Cell Titer-Blue, 72 h)", "format": "cell-based", "conditions": "Homo sapiens, AML, one representative of three experiments, read-out: IC50 (heat map) MOLM-13"}, "[22]": {"system": "KHYG-1", "test": "Cytotoxicity assay (Cell Titer-Blue, 72 h)", "format": "cell-based", "conditions": "ANKL, one representative of three experiments, read-out: IC50 (heat map) KHYG-1"}},
  "note": "pIC50: −log10 of the molar value.",
  "data": [
    {"compound": "O=C(CCCCCCNC(=O)c1cnc(N(c2ccccc2)c2ccccc2Cl)nc1)NO", "note": "[Citarinostat]", "values": [
      {"measurement": "pIC50", "setting": "[1]", "result": 5.87},
      {"measurement": "acetylated histone H3 levels (Western blot)", "setting": "[2]", "result": "higher with citarinostat in comparison to KT-531"},
      {"measurement": "pIC50", "setting": "[3]", "result": 5.75},
      {"measurement": "pIC50", "setting": "[4]", "result": 5.42},
      {"measurement": "pIC50", "setting": "[5]", "result": 5.10},
      {"measurement": "pIC50", "setting": "[6]", "result": 5.24},
      {"measurement": "pIC50", "setting": "[7]", "result": 5.13},
      {"measurement": "acetylation of α-tubulin (immunofluorescence)", "setting": "[8]", "result": "weaker acetylation as compared to KT-531"},
      {"measurement": "pIC50", "setting": "[9]", "result": 5.40},
      {"measurement": "cleavage of PARP-1 and Caspase-3", "setting": "[10]", "result": "absence of cleaved Caspase-3 and PARP-1"},
      {"measurement": "Early Apoptosis", "setting": "[11]; 0.5 μM", "result": 9, "unit": "%"},
      {"measurement": "Late Apoptosis", "setting": "[11]; 1 μM", "result": 10, "unit": "%"},
      {"measurement": "Healthy (nonapoptotic)", "setting": "[11]; 2 μM", "result": 47, "unit": "%"},
      {"measurement": "AUC(0-t)", "setting": "[12]; read-out: In vivo AUClast (overall exposure)", "result": 4.16, "unit": "µg·h/mL"},
      {"measurement": "half-life", "setting": "[12]; read-out: In vivo t1/2", "result": 15, "unit": "min"},
      {"measurement": "pIC50", "setting": "[13]", "result": 5.99},
      {"measurement": "pIC50", "setting": "[14]", "result": 5.31},
      {"measurement": "pIC50", "setting": "[15]", "result": 5.71},
      {"measurement": "pIC50", "setting": "[16]", "result": 5.71},
      {"measurement": "pIC50", "setting": "[17]", "result": 5.33},
      {"measurement": "pIC50", "setting": "[18]", "result": "< 4.52"},
      {"measurement": "pIC50", "setting": "[19]", "result": 5.76},
      {"measurement": "pIC50", "setting": "[20]", "result": 5.72},
      {"measurement": "pIC50", "setting": "[21]", "result": 5.70},
      {"measurement": "pIC50", "setting": "[22]", "result": 5.92}
    ]}
  ]
}
